Here are results for 1 molecule from patent publication US4536335A, “Carbapenem antibiotics” (Bristol-Myers Company, priority 1983, dated 1985).

One data set has as its system E. coli A20341-1. Description: In vitro MIC, tube dilution. The note with it: Escherichia coli, A203411, tube dilution, Nutrient Broth, overnight incubation at 37° C.; additional data table. The format is cell-based.
Data set [1] is described as follows: Half-life in phosphate buffer solution. In kind it is physicochemical. Conditions: phosphate buffer, pH 7.4, concentration of 10^-4 M in phosphate buffer pH 7.4 at 36.8° C.; read-out: t1/2 (solution stability) (converted). As for the experimental part:
A solution of para-nitrobenzyl 3-[2-(N-methylthiomorpholinium diphenylphosphate)ethylthio]-6α-[1'-(R)-hydroxyethyl]-7-oxo-1-azabicyclo[3.2.0]hept-2-ene-2-carboxylate (1.31 g, 1.76 mmol) in 0.1 M pH 7.4 phosphate buffer (48.8 mL), tetrahydrofuran (20 mL) and diethyl ether (20 mL) was hydrogenated over 10% pd/C (1.5 g) in a Parr shaker for 1 h at 40 psi. The reaction mixture was diluted with diethyl ether (40 mL) and the phases were separated. The organic phase was washed with water (2×5 mL). The aqueous phases were combined, filtered through a #52 hardened filter paper, washed with diethyl ether (2×20 mL) and pumped under vacuum. The aqueous solution was poured on a silica gel reverse phase column and the desired carbapenem was eluted with 5% acetonitrile-water.
To a solution of p-nitrobenzyl (5R,6S)-3-[2-(1-methylmorpholino)ethylthio]-6-[(R)-1-hydroxyethyl]-7-oxo-1-azabicyclo[3.2.0]hept-2-ene-2-carboxylate diphenylphosphate (0.360 g, 0.49 mmol) in 13 mL of phosphate buffer (0.05 M pH 7.4) was added 0.36 g of 10% palladium-on-charcoal, 20 mL of tetrahydrofuran and 20 mL of diethyl ether. This mixture was hydrogenated (Parr) at 32 psi for 1 h. The mixture was filtered through Celite and the filter pad was washed with H2 O and diethyl ether. The aqueous phase was separated and the pH was adjusted to 7.0 with additional pH 7.4 phosphate buffer. After removing residual organic solvents in vacuo the aqueous solution was applied to a C18 reverse-phase column.
To a solution of (5R,6S)paranitrobenzyl 3-[2-(1,4-dimethyl-1-piperazinium)ethylthio]-6-[1-(R)-hydroxyethyl]-7-oxo- 1-azabicyclo[3.2.0]hept-2-ene-2-carboxylate diphenylphosphate (0.47 g, 0.623 mmol) in wet tetrahydrofuran (25 mL) was added diethyl ether (25 mL), potassium phosphate monobasic-sodium hydroxide buffer (13 mL, pH 7.22) and 10% palladium on charcoal (0.47 g). The resulting mixture was hydrogenated at 23° C. under 40 psi for 1 h. The two layers were separated and the organic layer was extracted with water (2×7 mL).
To a cold (-10° C.) solution of (5R,6S)-3-[2 -(N-methyl-thiomorpholinium)ethylthio]-6-[1-(R)-hydroxyethyl]-7-oxo-1-azabicyclo(3.2.0)-hept-2-ene-2-carboxylate (608 mg, 1.65 mmol) in a 1:1 mixture of acetonitrile-water (9 mL) was added m-chloroperbenzoic acid (334.8 mg, 1.65 mmol) in small portion over a 1 hour period. The mixture was then diluted with water (15 mL) and washed with diethyl ether (3×15 mL).
A mixture of (5R,6S) paranitrobenzyl 3-[2-(1,4,4-trimethyl-1-piperazinium)ethylthio]-6-[1R-hydroxyethyl]-7-oxo- 1-azabicyclo(3.2.0)hept-2-ene-2-carboxylate bischloride (0.40 g, 0.68 mmol), phosphate buffer (30 mL, 0.05M, pH 7.0), tetrahydrofuran (10 mL), ether (30 mL) and 10% palladium on charcoal (0.40 g) was hydrogenated at 23° C. under 35 psi for 1 h. The two phases were separated. The organic phase was extracted with water (10 mL).

The next data set deals with S. marcescens A20019. Put plainly: In vitro MIC, tube dilution. The format is cell-based. The note with it: Serratia marcescens, A20019, tube dilution, Nutrient Broth, overnight incubation at 37° C.; additional data table.

Molecules are shown by their SMILES. In brackets after ≈: the same amount, converted by molar mass.

One may read the MIC as the least concentration at which growth counts as inhibited. Lower therefore signals inhibition by little substance. Consider `C[C@@H](O)[C@H]1C(=O)N2C(C(=O)[O-])=C(SCC[N+]3(C)CCN(C)CC3)C[C@H]12` [Example 4, (5R,6S)3-[2-(1,4-dimethyl-1-piperazinium)-ethylthio]-6-[1-(R)-hydroxyethyl]-7-oxo-1-azabicyclo-[3.2.0]hept-2-ene-2-carboxylate], for which the MIC was 0.13 µg/mL (≈ 0.352 µM) in the data set with E. coli A20341-1 and 0.25 µg/mL (≈ 0.677 µM) in the data set on S. marcescens A20019. Moreover, the half-life in data set [1] is 12.4 h.
